# From patent US20110151025A1, “Compositions Comprising N-Halogenated or N,N-Dihalogenated Amine for Treatment and Prophylaxis of Bronchopulmonary Infections” (NOVABAY PHARMACEUTICALS, INC., priority 2008, published 2011)
# Entries after “also recorded” stand apart in the source; their conditions may differ. Read-outs that look alike come from different tables or passages of the source.
# Legend:
# [1] = purulent coated crural ulcers; cited from earlier work
# [2] = tested on: all classes of pathogens; conditions: cited from earlier work
# [3] = tested on: viral bronchitis; assay: Inhalation of 1% NCT by human volunteers suffering from viral bronchitis; assay type: in vivo
# [4] = Intraperitoneal injection in Swiss mice; assay type: in vivo; conditions: 1% NCT
# Source text: NCT is relatively safe and well-tolerated by mammals. For example, as a mild oxidant, tolerability of 1% aqueous NCT solution by human and animal tissue is good.
# [5] = chronic rhinosinusitis, pilot study; cited from earlier work
# [6] = tested on: proinflammatory cytokines; conditions: cited from earlier work
# [7] = Tolerability of inhaled haloamines in anesthetized pig model; conditions: for Arterial partial pressure of oxygen (PaO2) compared to controls: 4 inhalations of 5 mL, hourly over 4 hours; for Heart rate compared to controls: 4 hours measurement
# Protocol: A study was designed to evaluate the tolerability of inhalative haloamines in a pig model. NCT was used as a representative haloamine. Anesthetized pigs inhaled test solutions of 1% NCT (n=7), 5% NCT (n=6), or 1% NCT plus 1% ammonium chloride (n=6), and 0.9% saline solution as a control (n=7), respectively. Applications were performed every hour over a four-hour time period, i.e., four inhalations in total, with 5 mL each.
# Anesthetized pigs inhaled test solutions of 1% NCT (n=7), 5% NCT (n=6), or 1% NCT plus 1% ammonium chloride (n=6), and 0.9% saline solution as a control (n=7), respectively. Applications were performed every hour over a four-hour period, i.e., 4 inhalations in total, with 5 mL each.
# Anesthetized pigs inhaled test solutions of 1% NCT (n=7), 5% NCT (n=6), or 1% NCT plus 1% ammonium chloride (n=6), and 0.9% saline solution as a control (n=7), respectively. Applications were performed every hour within four hours, i.e., 4 inhalations in total, with 5 mL each.
# Anesthetized pigs inhaled test solutions of 1% NCT (n=7), 5% NCT (n=6), or 1% NCT plus 1% ammonium chloride (n=6), and 0.9% saline solution as a control (n=7), respectively. Applications were performed every hour over a four-hour period of time, i.e., 4 inhalations in total, with 5 mL each.
# [8] = transtympanal injection of 0.1%, 1%, and 10% NCT, mice; cited from earlier work
# [9] = tested on: Staphylococcus aureus; conditions: local administration, mouse model; cited from earlier work
# [10] = 1% aqueous NCT solution, rabbit eyes; cited from earlier work
# [11] = tested on: infectious conjunctivitis; conditions: in vivo; cited from earlier work
# [12] = tested on: external otitis; conditions: human external otitis; cited from earlier work
# [13] = tested on: omniresistant Pseudomonas aeruginosa; conditions: NCT irrigations, three patients; cited from earlier work
# [14] = 1% aqueous NCT solution, human eyes; cited from earlier work
smiles,measurement,setting,value
"O=S(=O)(O)CCNCl [NCT, N-chlorotaurine]",Pain versus chloramine T,[1],significantly less pain
same,Toxicity versus chloramine T,[1],less toxic than chloramine T
same,Antimicrobial spectrum,[2],broad-spectrum antimicrobial activity
same,Induction of resistance of pathogens,[2],resistance of pathogens is not induced
same,Symptoms experienced by patients,[3]; 5 mL of 1% NCT inhaled for 10 minutes 3 times daily for three days,"easier breathing, less coughing and less expectoration"
same,"Side effects (symptoms for bronchoconstriction, cough, dyspnea)","[3]; 5 mL of 1% NCT inhaled for 10 minutes 3 times daily for three days, three volunteers",no side effects detectable
same,Development of bronchitis after pharyngitis,"[3]; one patient, NCT used as a treatment for pharyngitis",did not develop bronchitis
same,Tolerated intraperitoneal dose,[4],tolerated up to one mL 1% NCT
same,Tolerability,[5],good tolerability
same,Effect on proinflammatory cytokines,[6],down-regulate proinflammatory cytokines
same,Pulmonary artery pressure compared to saline group,[7]; 1% NCT,tended to result in even better values
same,Alveolo-arterial difference of oxygen partial pressure (AaDO2),"[7]; 1% NCT, 4-hour measurement, controls 33.7±9.03, p=0.016",21.0±13.09
same,Arterial partial pressure of oxygen (PaO2) compared to controls,[7]; 1% NCT,No difference in PaO2 to controls
same,Heart rate compared to controls,[7]; 1% NCT,not significantly different from controls
same,Tolerability in the bronchopulmonary system upon inhalation,"[7]; 1% NCT, conclusion from pig and volunteer results",very well tolerated
same,Pulmonary artery pressure compared to controls,[7]; 5% NCT,became higher than in the control group; also recorded: significantly higher values
same,Tolerability upon inhalation,[7]; 5% NCT,very well tolerated
same,Alveolo-arterial difference of oxygen partial pressure (AaDO2) compared to the controls,[7]; 5% NCT (p=0.99),not different
same,Arterial partial pressure of oxygen (PaO2) compared to controls,[7]; 5% NCT,No difference in PaO2 to controls
same,Heart rate compared to controls,[7]; 5% NCT,not significantly different from controls
same,Damage of the inner ear,[8],did not cause damage of the inner ear
same,Inhibition of septic arthritis,[9],inhibited septic arthritis
same,Tolerability,[10],good
same,Efficacy in infectious conjunctivitis,[11],data indicating efficacy
same,Efficacy versus standard medication,[12],more effective than a standard medication
same,Eradication of bacteria from the urinary bladder,[13],possible to eradicate bacteria
same,Tolerability,[14],good
